# Results from patent publication US11504349B2, “Composition for preventing or treating TNF-related diseases, containing novel derivative as active ingredient, and method for inhibiting TNF activity by using same” (ILAB, priority 2017, dated 2022).
# How the values were obtained:
# TNF-etanercept binding = TNF-etanercept binding (Homo sapiens, UniProt P01375); experiment: SPR competition: inhibition of TNF-etanercept binding; conditions: etanercept alone vs with compound, FIG. 2e
# Procedure: The competition of binding of TNF-inhibiting biopharmaceutical etanercept and the derivative compounds to TNF was measured by SPR assay. Based on the results of pH scouting (10 mM acetate buffer, pH 4.0, 4.5, 5.0, and 5.5), the appropriate buffer pH was determined, and then the recombinant TNF was immobilized on the CM5 chip (4000-5000 RU). In order to correct an effect of DMSO, a solvent correction standard was then prepared, and DMSO was added to the PBST buffer (1×PBS, pH 7.4, 0.05% Tween 20, 0.01% Triton X-100, 5% DMSO) in an amount of 5%. Then, Etanercept alone or in combination with the compounds was flowed into the chip (20 μl/min, 300 s) and dissolved (700 s), and the results of sensorgram were analyzed by a dedicated program. […] At this time, the running buffer was PBST buffer, the regeneration buffer was 10 mM glycine (pH 2.5), and the instrument was Biacore T200 (GE).
# DBA/1 mice [1] = experiment: Therapeutic effect on rheumatoid arthritis, CIA mouse model; assay type: in vivo
# Procedure: The CIA mouse model is a model in which arthritis is induced by collagen in DBA/1 mice. Thus, a 1:1 mixture of collagen type 2 and CFA was intradermally (ID) injected into the base of the tail of 8-week old DBA/1 mice. Two weeks after the primary immunization, a 1:1 mixture of collagen type 2 and IFA was intradermally (ID) injected into the base of the tail. After the second immunization, the pathology was measured twice a week, and the groups were divided equally so that the mean of the pathology of each group was 4 points. From Day 35 after the primary immunization, etanercept (4.5 mpk), adalimumab (1.2 mpk), the compound of Example 61 (25 mpk, 50 mpk, or 100 mpk) were orally administered three times a week, and the pathology was measured and recorded. The pathology score was measured as 1=inflammation and swelling of one toe, 2=inflammation of one or more toes or weak swelling of the whole sole of the foot, 3=severe swelling of the whole sole of the foot and swelling of ankle, 4=very severe inflammation and swelling of the whole foot or the bending and stiffness of foot (N=7 to 9/group, *P<0.01, **P<0.005, ***P<0.001).
# TNF = TNF (Homo sapiens, UniProt P01375); experiment: TNF-neutralization bioassay: TNF-induced cell death of LM cells (MTT); assay type: cell-based
# Chain of TNF (P01375 77-233 limits assumed): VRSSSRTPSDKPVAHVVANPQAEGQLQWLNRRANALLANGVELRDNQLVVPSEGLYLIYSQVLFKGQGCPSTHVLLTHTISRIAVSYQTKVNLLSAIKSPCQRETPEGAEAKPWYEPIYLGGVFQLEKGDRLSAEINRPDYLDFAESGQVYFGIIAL
# How it was run: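 Mouse fibroblast LM cells (5×10^4 cells/well) treated with TNF (20 ng/ml), compound and actinomycin D sensitizer for 24 h. Viability by MTT (4 h), absorbance at 570 nm. % TNF inhibition from OD relative to TNF-treated and untreated groups; IC50 and CC50 by Prism.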
# [2] = Cytotoxicity (CC50) in LM cells, MTT assay; assay type: cell-based; conditions: mouse, LM cells (mouse fibroblasts); 50% cytotoxic concentration
# Procedure: First, the addition of recombinant TNF to mouse fibroblast LM cells induces cell death, and thus, by using the same, the TNF-neutralization bioassay was constructed. In other words, LM cells were pretreated with TNF (20 ng/ml) and the compounds synthesized in the above examples at various concentrations (5×10^4 cells/well), and a sensitizer actinomycin D ([…]) was added, and cultured in a CO2 incubator for 24 hours, and then the MTT assay was carried out. At this time, 10 μl of MTT (5 mg/ml stock) was added, reacted for 4 hours, and then dissolved in DMSO to measure the absorbance at 570 nm. First, the TNF cell death inhibition/neutralization action of TNF-target expected compounds at single concentration (50 or 10 μM) was measured. Second, IC50 values were determined by treating with the compounds having an excellent effect at different concentrations. The % inhibition of TNF was calculated using the following formula: % inhibition of TNF=(OD value of a group treated with TNF and compound−OD value of TNF treated group/(OD value of TNF untreated group−OD value of TNF treated group)×100.
# IC50 values were statistically analyzed using Prism 6 (GraphPad) (IC50: 50% inhibitory concentration, CC50: 50% cytotoxic concentration).
# NF-kB p65 = experiment: Western blot: TNF-induced NF-kB p65 nuclear migration in LM cells; assay type: cell-based, mouse; conditions: TNF 50 ng/ml, 1 hour, compound at about 25 μM
# Procedure: First, LM cells was treated with TNF alone (50 ng/ml) or a mixture of TNF and the compound of Example 61 (0, 10, 25, 50 μM) for 1 hour, and then the cells were washed and prepared. After the cytoplasmic fraction and nuclear fraction were separated/obtained using NE-PER nuclear and cytoplasmic extraction reagents (Thermo Scientific, cat #78833), NF-kB p65 protein was detected by SDS-PAGE and Western Blot. Anti-NF-κB p65 rabbit monoclonal antibody (Cell Signaling Technology, cat #D14E12) was used as a primary antibody, and goat anti-rabbit HRP-conjugated antibody (Invitrogen, cat #656120) was used as a secondary antibody. As a Western Blot control protein (housekeeping protein), GAPDH was used in the cytoplasmic fraction, and Lamin B1 was used in the nuclear fraction. Anti-GAPDH mouse monoclonal antibody (GenScript, cat #A01622) was used as a primary antibody of GAPDH, and goat anti-mouse HRP-conjugated antibody (BETHYLlaboratories, cat #A90-116P) was used as a secondary antibody. Anti-Lamin-B1 rabbit monoclonal antibody (Cell Signaling Technology, cat #12586S) was used as a primary antibody of Lamin B1, and anti-rabbit HRP-conjugated antibody (Invitrogen, cat #656120) was used as a secondary antibody.
# DBA/1 mice [3] = experiment: CIA mouse model, alone and in combination with methotrexate; assay type: in vivo; conditions: Example 61 10 mpk PO once a day, MTX 5 mpk three times a week, to Day 73
# Text: A 1:1 mixture of collagen type 2 and CFA was intradermally (ID) injected into the base of the tail of DBA/1 mice. Two weeks after the primary immunization, a 1:1 mixture of bovine collagen type 2 and IFA (incomplete Freund's adjuvant) was intradermally (ID) injected into the base of the tail to prepare the rheumatoid arthritis animal model. The thus prepared mice were divided into […], i.e., a positive control group (MTX 5 mpk treated group: 10 mice), a group treated with the compound of Example 61 alone (10 mpk treated group: 9 mice), a group treated with MTX and the compound of Example 61 (each 5 mpk and 10 mpk; 9 mice), and a group treated with vehicle (a group treated with 0.05% CMC diluted in distilled water; 15 mice). […]
# The severity of arthritis was determined by ascertaining the mean score of arthritis according to the following standard score in the forefoot and hindfoot twice a week from Day 0 to Day 73 after the primary immunization: 0=normal foot, 1=inflammation and swelling of one toe, 2=inflammation and swelling of more than one toe, but not all of the toes have inflammation and swelling, or weak swelling of all toes, 3=inflammation and swelling of all toes, and 4=severe inflammation and swelling or occlusion of foot.
# Chain of TNF-etanercept binding (P01375 77-233 limits assumed): as above
smiles,measurement,setting,value
"O=C(O)c1c(-c2cc(F)ccc2F)oc2cc(Cl)ccc2c1=O [Example 61, 2-(2,5-difluorophenyl)-3-carboxy-7-chloro-(4H)-4-benzopyranone]",inhibition of TNF-etanercept binding,TNF-etanercept binding,significantly inhibited the TNF-etanercept binding
same,therapeutic effect on rheumatoid arthritis (pathology score),"DBA/1 mice [1]; 25, 50 and 100 mpk PO three times a week, vs negative control",remarkable therapeutic effect
same,effect in comparison with etanercept,DBA/1 mice [1]; 25 mpk,non-inferior effect
same,efficacy in comparison with tofacitinib (25 mpk),DBA/1 mice [1]; 25 mpk,considerably similar efficacy
same,inhibition at 50 µM,"TNF; compound 50 μM, TNF 20 ng/ml, actinomycin D, LM cells, 24 hours",95.7%
same,IC50,TNF; inhibition of TNF-induced LM cell death,1800 nM
same,CC50 at 24 h,[2],> 50000 nM
same,migration of NF-kB from the cytoplasm to the nucleus activated by TNF,NF-kB p65,almost completely inhibited
same,therapeutic effect on arthritis (mean arthritis score),DBA/1 mice [3],therapeutic effect on arthritis was shown
